Where only a bound is given, the exact number is not on record here.

A word on the ED50: it is the dose at which the effect has come halfway, by size or by number of responders. By IC50 is commonly meant the concentration at which inhibition is half-maximal.

Test [1] concerns the target T1, 5-HT1A (Rattus norvegicus, UniProt P19327).
T1 sequence (P19327 1-422): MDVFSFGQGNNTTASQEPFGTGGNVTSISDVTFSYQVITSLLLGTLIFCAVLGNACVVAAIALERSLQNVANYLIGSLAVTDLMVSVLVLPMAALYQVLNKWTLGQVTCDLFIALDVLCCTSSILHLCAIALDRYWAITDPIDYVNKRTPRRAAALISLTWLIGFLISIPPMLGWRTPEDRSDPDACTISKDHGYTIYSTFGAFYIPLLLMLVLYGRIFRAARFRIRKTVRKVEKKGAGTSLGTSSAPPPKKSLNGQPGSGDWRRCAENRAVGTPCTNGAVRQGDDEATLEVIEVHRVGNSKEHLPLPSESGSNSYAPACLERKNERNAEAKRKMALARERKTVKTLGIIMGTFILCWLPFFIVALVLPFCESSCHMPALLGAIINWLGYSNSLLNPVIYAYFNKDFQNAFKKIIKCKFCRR
Description: Inhibition of 5-methoxy-N,N-dimethyltryptamine (5-MeODMT) induced 5-HT syndrome in rats. The class given is in vivo, Male Wistar rats. Set-up: Male Wistar rats (Mol:Wist) weighing 170-240 g are used; from tissue; host or cells: whole living animal, male Wistar rats (Mol:Wist), s.c. dosing. The conditions noted are these: rat, sc. The source says:
INHIBITION OF 5-METHOXY-N,N-[…] INDUCED 5-HT SYNDROME IN RATS
The so-called 5-HT syndrome is a characteristic behaviour pattern which is induced by 5-HT agonists with effects on 5-HT, possibly 5-HT1A receptors, although lack of specific antagonists make it difficult to evaluate specificity (Smith, L. M. and S. J. Peroutka, Pharmacol. Biochem. & Behaviour 24, 1513-1519, 1986; Tricklebank, M. et al., Eur. J. Pharmacol. 117, 15-24, 1985).
Male Wistar rats (Mol:Wist) weighing 170-240 g are used. Test substrate is injected subcutaneously 30 min. before 5-methoxy-N,N-dimethyltryptamine 5 mg/kg, s.c. Four rats are used for each dose. A control group pretreated with saline is included each test day. Ten, 15 and 20 min later the rats are observed for presence of serotonin (5-HT) syndrome: (1) forepaw treading ("piano playing"), (2) head weaving and (3) hindleg abduction. Further, flat motility is scored. Each part of the syndrome is scored as follows: marked effect (score 2), weak syndrome (score 1) and no effect (score 0). The scores of the three observation times are added. Thus the maximum obtainable score for four rats is 24. The effect of the test substance is expressed as per cent inhibition relative to the control group.
The per cent inhibition of the piano playing syndrome is used as the response, and ED50 values are calculated by log-prohibit analysis.

For test [2], the target named is T1, 5-HT1A. Description: Generalization to discriminative stimulus properties induced by 8-OHDPAT in rats (agonism). The class given is in vivo, Male Wistar rats. Set-up: from tissue; host or cells: whole living animal, male Wistar rats, s.c. dosing. As to conditions: rat, sc, usually 30 or 45 min before test; substituted for 8-OHDPAT; per cent drug response; read-out: ED50, 8-OH DPAT cue agonism. The source says: GENERALIZATION TO DISCRIMINATIVE STIMULUS PROPERTIES INDUCED BY 8-OHDPAT IN RATS.
This test model is used to determine the agonist effects of a test compound on 5-HT1A receptors in vivo. A related method is described by Tricklebank, M. D., J. Neill, E. J. Kidd and J. R. Fozard, Eur. J. Pharmacol. 133, 37-56, 1987; Arnt, J., Pharmacology & Toxicology 64, 165-172, 1989.
The procedure is the same as for the antagonism test mentioned above, except that the test compound is substituted for 8-OHDPAT and injected s.c. usually 30 minutes or 45 minutes respectively before beginning of the test.
The per cent drug response obtained for each dose of test compound is used to calculate ED50 values by log-probit analysis.

Test [3] has as its target T1, 5-HT1A. Description: Antagonism of the discriminative stimulus properties induced by 8-OHDPAT in rats. On the set-up: from tissue; host or cells: whole living animal, male Wistar rats, s.c. dosing. The class given is in vivo, Male Wistar rats. The conditions noted are these: rat, sc, s.c. before 8-OHDPAT; rats trained at 0.4 mg/kg i.p.; inhibition of drug responding; read-out: ED50, 8-OH DPAT cue antagonism. The procedure: ANTAGONISM OF THE DISCRIMINATIVE STIMULUS PROPERTIES INDUCED BY 8-OHDPAT IN RATS.
This test model is used to determine the antagonist effects of a test compound on 5-HT1A receptors in vivo. A related method is described by Tricklebank, M. D., J. Neill, E. J. Kidd and J. R. Fozard, Eur. J. Pharmacol. 133, 47-56, 1987; Arnt. J., Pharmacology & Toxicology 64, 165-172, 1989.
Male Wistar rats are trained to discriminate between 8-OHDPAT (0.4 mg/kg, i.p., 15 min. pretreatment) and physiological saline in operant chambers equipped with two response levers. Between the levers a dipper is placed, where water rewards (0.1 ml) are presented. The rats are water deprived for at least 24 h and work in a fixed ratio (FR) schedule (final FR=32).
Following 8-OHDPAT administration responding is reinforced only on a designated (drug) lever, whereas responding on the opposite lever has no consequences. Following saline administration responding is reinforced on the lever opposite to the drug lever. Drug and saline trials alternate randomly between training days, although the same treatment is given maximally at 3 consecutive days. The level of discrimination occuracy is expressed as the per cent drug responses and is calculated as the number of correct responses×100 divided by the sum of the correct and incorrect responses before the first reward. When stable occuracy (mean correct responding=90 per cent; individual rats at least 75 per cent correct responding) is obtained test sessions are included between training days. Test compound is injected s.c. at appropriate time before 8-OHDPAT and the test begins 15 min after 8-OHDPAT injection. The test trial is terminated when a total of 32 responses are made on either lever or when 20 min have elapsed. No reward is given and the rats have free access to water for 20-30 min after the test. The effects are expressed as per cent inhibition of drug responding. Only results from rats making at least 10 responses on one lever are included in data analysis. Furthermore, only test sessions in which at least half of the rats respond are included.
The per cent inhibition of drug response obtained for each dose of test compound is used to calculate ED50 values by log-probit analysis.

For test [4], the target named is T2, serotonin 5-HT1A receptors (Rattus norvegicus, UniProt P19327).
T2 construct: membranes from rat brain minus cerebellum; from tissue; host or cells: brain minus cerebellum of male Wistar (Mol:Wist) rats, membranes
T2 sequence (P19327 1-422): T1 sequence (P19327 1-422)
Description: Inhibition of 3H-8-OHDPAT binding to serotonin 5-HT1A receptors in rat brain in vitro. The conditions noted are these: 3H-8-OHDPAT 1 nM, rat brain membranes minus cerebellum, 37° C., 15 min; read-out: IC50 (3H 8-OH DPAT binding). The procedure: INHIBITION OF ^3 H-8-OHDPAT BINDING TO SEROTONIN 5-HT1A RECEPTORS IN A RAT BRAIN IN VITRO
By this method the inhibition by drugs of the binding of ^3 H-8-OHDPAT (1 nM) to serotonin 5-HT1A receptors in membranes from rat brain minus cerebellum is determined in vitro.
Male Wistar (Mol:Wist) rats (125-250 g) are sacrificed and the brain is dissected and weighed. The brain tissue minus cerebellum is homogenized (Ultra Turrax, 20 sec) in 10 ml of ice cold 50 mM Tris buffer pH 8.0 (at 25° C.) containing 120 mM NaCl, 4 mM CaCl2 and 4 mM MgCl2. The homogenate is centrifuged at 20,000 g for 10 min at 4° C. The pellet is homogenized in 10 ml of buffer and incubated at 37° C. for 10 min. The homogenate is centrifuged as above and the pellet is homogenized in 100 vol (w/v) ice cold buffer containing 10 μ M of parglyine.
Incubation tubes kept on ice in triplicate receive 100 μl of drug solution in water (or water for total binding) and 1000 μ l of tissue suspension (final tissue content corresponds to 10 mg original tissue). The binding experiment is initiated by addition of 100 μ l of ^3 H-8-OHDPAT (final concentration 1 nM) and by placing the tubes in a 37° C. water bath. After incubation for 15 min the samples are filtered under vacuum (0-50 mBar) through Whatman GF/F filters ([…]). The tubes are rinsed with 5 ml ice cold 0.9% NaCl which are then poured on the filters. Thereafter, the filters are washed with 2×5 ml 0.9% NaCl. The filters are placed in counting vials and 4 ml of appropriate scintillation fluid (e.g. Picofluor™15) are added. After shaking for 1 h and storage 2 h in the dark the content of radioactivity is determined by liquid scintillation counting. Specific binding is obtained by subtracting the nonspecific binding in the presence of 10 μ M of 5-HT.
For determination of the inhibition of binding five concentrations of drugs covering 3 decades are used.
The IC50 -value is determined as the concentration, at which the binding is 50% of the total binding in control samples minus the nonspecific binding in the presence of 10 μM of 5-HT.
^3 H-8-OHDPAT from Amersham International plc. England. Specific activity approximately 200 Ci/mmol).

`O=C1CC2(CCCC2)CC(=O)N1CCCCN1CCN(c2ncccn2)CC1` [buspirone, reference compound]: the ED50 in test [1] is 4.3 µmol/kg; in test [2], 0.62 µmol/kg; in test [3], more than 0.8 µmol/kg.
For the molecule `O=C1c2ccccc2S(=O)(=O)N1CCCCN1CCN(c2ncccn2)CC1` [ipsapirone, reference compound], the figures for the ED50 in test [1] and in test [2] were 26 µmol/kg and 1.8 µmol/kg, respectively. The IC50 in test [4] came out at 17 nM.

The values are drawn from patent publication US5002948A, “3-[4-[4-substituted-1-piperazinyl]-1-butyl]-1H-2,3-dihydroindoles” (H. Lundbeck A/S, priority 1988, dated 1991).
